Patent US6492381B1, “Tricyclic carbamate compounds useful for inhibition of G-protein function and for treatment of proliferative diseases” (Schering Corp., priority 1993, dated 2002)
Like-named read-outs stand apart in the source and are kept apart here.

Columns and labels:
[1] = test system: Normal human HEPM fibroblasts; assay: Cell Mat assay: inhibition of normal cell growth; format: cell-based; conditions: mIC50, normal cell monolayer
Description: (§1) Normal human HEPM fibroblasts were planted in 3.5 cm dishes at a density of 5×10^4 cells/dish in 2 ml growth medium, and incubated for 3-5 d to achieve confluence. Medium was aspirated from each dish and the indicator tumor cells, T24-BAG4 human bladder carcinoma cells expressing an activated H-ras gene, were planted on top of the fibroblast monolayer at a density of 2×10^3cells/dish in 2 ml growth medium, and allowed to attach overnight. Compound-induced colony inhibition was assayed by addition of serial dilutions of compound directly to the growth medium 24 h after tumor cell planting, and incubating cells for an additional 14 d to allow colony formation. Assays were terminated by rinsing monolayers twice with phosphate-buffered saline (PBS), fixing the monolayers with a 1% glutaraldehyde solution in PBS, then visualizing tumor cells by staining with X-Gal (Price, J., et al., Lineage analysis in the vertebrate nervous system by retrovirus-mediated gene transfer, Proc. Natl. Acad. Sci.84, 156-160(1987)). […] Both IC50 values were obtained by determining the density of tumor cells and mat cells by visual inspection and enumeration of cells per colony and the number of colonies under the microscope. The therapeutic index of the compound was quantitatively expressed as the ratio of mIC50/tIC50, with values greater than one indicative of tumor target specificity.

[2] = biological target: T1, farnesyl protein transferase (FPT) (Rattus norvegicus, UniProt Q02293+Q04631); assay: In vitro enzyme assay: inhibition of farnesyl protein transferase; format: biochemical
T1 construct: were partially purified from rat brain by ammonium sulfate fractionation followed by Q-Sepharose; from tissue; host or cells: rat brain
Description: 1. In vitro enzyme assays: Inhibition of farnesyl protein transferase and geranylgeranyl protein transferase.
Human farnesyl protein transferase was also expressed in E. coli, using cDNA clones encoding both the α and β subunits. […] Two forms of val^12-Ha-Ras protein were prepared as substrates for these enzymes, differing in their carboxy terminal sequence. One form terminated in cysteine-valine-leucine-serine (Ras-CVLS) the other in cystein-valine-leucine-leucine (Ras-CVLL). Ras-CVLS is a substrate for the farnesyl protein transferase while Ras-CVLL is a substrate for geranylgeranyl protein transferase I. The cDNAs encoding these proteins were constructed so that the proteins contain an amino-terminal extension of 6 histidine residues. Both proteins were expressed in Escherichia coli and purified using metal chelate affinity chromatography. The radiolabelled isoprenyl pyrophosphate substrates, [^3H]farnesyl pyrophosphate and [^3H]geranylgeranyl pyrophosphate, were purchased from DuPont/New England Nuclear.
The reaction was allowed to proceed for 30 minutes at room temperature and then stopped with 0.5 ml of 4% sodium dodecyl sulfate (SDS) followed by 0.5 ml of cold 30% trichloracetic acid (TCA). Samples were allowed to sit on ice for 45 minutes and precipitated Ras protein was then collected on GF/C filter paper mats using a Brandel cell harvester. […] Percent inhibition was calculated relative to the DMSO vehicle control.

[3] = test system: T24-BAG4 human bladder carcinoma cells expressing an activated H-ras gene; assay: Cell Mat assay: inhibition of tumor cell growth; format: cell-based; conditions: for IC50: tIC50
Description: as §1

[4] = Ras-CVLS farnesylation, partially purified rat brain FPT, read-out: FPT IC50

IC50 [2, 4] [µM]	SMILES	other results
37.6	CCOC(=O)N1CCC(=C2c3ccc(Cl)cc3CCc3ccc[n+]([O-])c32)CC1 [Compound 515.00, Ethyl 4-(8-chloro-5,6-dihydro-11H-benzo[5,6]cyclohepta[1,2-B]pyridin-11-ylidene)-1-piperidinecarboxylate N-oxide]	IC50 [1]: > 100 µM; selective antiproliferative activity against Ras-transformed cells versus normal cells [3]: little; IC50 [3]: 75 µM
10.4	CCOC(=O)N1CCC(F)(C2c3ccc(Cl)cc3CCc3cccnc32)CC1 (stereo not drawn) [Compound 520.00]	
7	CCOC(=O)N1CCC(=C2c3ccc(Br)cc3CCc3cccnc32)CC1 [Compound 540.00]	
7.1	CCOC(=O)N1CCC(=C2c3ccc(Cl)cc3CCc3cc(C)cnc32)CC1 [Compound 545.00]	
37.8	CCOC(=O)N1CCC(=C2c3cc(Cl)c(Cl)cc3CCc3cccnc32)CC1 [Compound 555.00]	
17.6	COC(=O)N1CCC(=C2c3ccc(Cl)cc3CCc3cccnc32)CC1 [Compound 560.00]	
8	O=C(OCc1ccccc1)N1CCC(=C2c3ccc(Cl)cc3CCc3cccnc32)CC1 [Compound 570.00]	
80	CCCCCCOC(=O)N1CCC(=C2c3ccc(Cl)cc3CCc3cccnc32)CC1 [Compound 590.00]	
10.5	CCOC(=O)N1CCC(=C2c3ccc(Cl)cc3CCc3c(Cl)ccnc32)CC1 [Compound 596.00]	
34.1	CCOC(=O)N1CCN([C@@H]2c3ccc(Cl)cc3CCc3cccnc32)CC1 [Compound 602.00, (+) Ethyl 4-(8-chloro-6,11-dihydro-11H-benzo[5,6]-cyclohepta[1,2-b]pyridin-11(R)-yl)-1-piperazine Carboxylate]	
10.5	CCOC(=O)N1CCN([C@H]2c3ccc(Cl)cc3CCc3cccnc32)CC1 [Compound 604.00, (−) Ethyl 4-(8-chloro-6,11-dihydro-11H-benzo[5,6]-cyclohepta[1,2-b]pyridin-11(S)-yl)-1-piperazinecarboxylate]	
> 20	O=C(OCc1ccccc1)N1CCN(C2c3ccc(Cl)cc3CCc3cccnc32)CC1 (stereo not drawn) [Compound 614.00, Phenylmethyl 4-(8-chloro-6,11-dihydro-5H-benzo[5,6]-cyclohepta[1,2-b]pyridin-11-yl)-1-piperazinecarboxylate]	IC50 ([1]; Homo sapiens, Fibroblast): > 50 µM; selective antiproliferative activity against Ras-transformed cells versus normal cells [3]: little; IC50 ([3]; Homo sapiens): 50 µM
10.5	CCOC(=O)N1CCC(C2c3cc(CC)c(Cl)cc3C=Cc3cccnc32)CC1 (stereo not drawn) [Compound 622.00, 8-chloro-11-(1-ethoxycarbonyl-4-piperidinyl)-9-ethyl-11H-benzo[5,6]cyclohepta[1,2-b]pyridine]	
7.4	CCOC(=O)N1CCC(C2c3ccc(Cl)cc3C=Cc3c(Cl)ccnc32)CC1 (stereo not drawn) [Compound 636.00]	
2.17	CCOC(=O)N1CCC(=C2c3ccc(Cl)cc3CCc3cc(Br)cnc32)CC1 [Compound 642.00]	IC50 ([1]; Homo sapiens, Fibroblast): > 50 µM; selective antiproliferative activity against Ras-transformed cells versus normal cells [3]: little; IC50 ([3]; Homo sapiens): 50 µM
	CCOC(=O)N1CCC(=C2c3ccc(Cl)cc3CCc3c(O)ccnc32)CC1 [Compound 646.00, Ethyl 4-[4-hydroxy-8-chloro-5,6-dihydro-11H-benzo[5,6]cyclohepta[1,2-b]pyridin-11-ylidene]-1-piperidine Carboxylate]	inhibition at 15 µM ([2]; @ 15 μM): 30%
11.5	CCOC(=O)N1CCC(=C2c3ccc(Cl)cc3CCc3cc(OC)cnc32)CC1 [Compound 658.00, 8-chloro-3-methoxy-11-(1-ethoxycarbonyl-4-piperidylidene)-6,11-dihydro-5H-benzo[5,6]-cyclohepta[1,2-b]pyridine]	
	CCOC(=O)N1CCC(=C2c3ccc(Cl)cc3CCc3c2ncc(Br)c3O)CC1 [Compound 660.00, Ethyl 4-[3-bromo-4-hydroxy-8-chloro-5,6-dihydro-11H-benzo[5,6]cyclohepta[1,2-b]pyridin-11-ylidene]-1-piperidine Carboxylate]	inhibition at 13 µM ([2]; @ 13 μM): 22%
10.8	CCOC(=O)N1CCC(=C2c3ccc(Cl)cc3C=Cc3cccnc32)CC1 [Compound 666.00]	
	O=C(Oc1ccc[n+]([O-])c1)N1CCN(C2c3ccc(Cl)cc3CCc3cc(Br)cnc32)CC1 (stereo not drawn) [Compound 801.00]	IC50 [2]: 0.28 µM
> 1.3	CN1CCC(OC(=O)N2CCN(C3c4ccc(Cl)cc4CCc4cccnc43)CC2)CC1 (stereo not drawn) [Compound 802.00]	FPT inhibition, second line of the FPT IC50 (μM) column ([2]; (1.3), the values are: FPT inhibition at 1.3 µM): 35%
2.1	CN1CCCC(OC(=O)N2CCN(C3c4ccc(Cl)cc4CCc4cccnc43)CC2)C1 (stereo not drawn) [Compound 804.00]	
0.3	CN1CCCC(OC(=O)N2CCN(C3c4ccc(Cl)cc4CCc4cc(Br)cnc43)CC2)C1 (stereo not drawn) [Compound 805.00]	
	O=C(Oc1ccccc1)N1CCN(C2c3ccc(Cl)cc3C=Cc3cccnc32)CC1 (stereo not drawn) [Example 32]	IC50 ([1]; Homo sapiens, Fibroblast): 25 µM; IC50 [2]: 0.88 µM; IC50 ([3]; Homo sapiens): 25 µM

SMILES	IC50 [2, 4] [µM]	other results
O=C(Oc1cccnc1)N1CCC(=C2c3ccc(Cl)cc3CCc3c(Cl)ccnc32)CC1 [Compound 644.00, 3-pyridyl 4-(4,8-dichloro-5,6-dihydro-11H-benzo[5,6]cyclohepta[1,2-b]pyridin-11-ylidene)-1-piperidine Carboxylate]	1.03	
O=C(Oc1cccnc1)N1CCC(=C2c3ccc(Cl)cc3CCc3c(O)ccnc32)CC1 [Compound 648.00, 3-pyridyl 4-[4-hydroxy-8-chloro-5,6-dihydro-11H-benzo[5,6]cyclohepta[1,2-b]pyridin-11-ylidene]-1-piperidine Carboxylate]	6.7	
O=C(Oc1cccnc1)N1CCC(=C2c3ccc(Cl)cc3CCc3c(On4nnc5ccccc54)ccnc32)CC1 [Compound 656.00, 3-pyridyl 4-[4-[(1H-benzotriazol-1-yl)oxy]-8-chloro-5,6-dihydro-11H-benzo[5,6]cyclohepta[1,2-b]pyridin-11-ylidene[-1-piperidine Carboxylate]	0.71	
O=C(Oc1cccnc1)N1CCC(=C2c3ccc(Cl)cc3CCc3c2ncc(Br)c3O)CC1 [Compound 662.00, 3-pyridyl 4-[3-bromo-4-hydroxy-8-chloro-5,6-dihydro-11H-benzo[5,6]cyclohepta[1,2-b]pyridin-11-ylidene]-1-piperidine Carboxylate]	3.8	
O=C(Oc1cccnc1)N1CCC(=C2c3ccc(Cl)cc3C=Cc3cccnc32)CC1 [Compound 664.00]	1.46	
O=C(Oc1ccc[n+]([O-])c1)N1CCN(C2c3ccc(Cl)cc3CCc3cccnc32)CC1 (stereo not drawn) [Compound 800.00]	3.7	
